Counter-ions that a name gives are not always drawn. Like-named read-outs stand apart in the source and are kept apart here.
Conditions: for Diastolic blood pressure Max / Diastolic blood pressure Mean ± SD / Diastolic blood pressure Median / Diastolic blood pressure Min / Pulse rate, Max / Pulse rate, Mean ± SD / Pulse rate, Median / Pulse rate, Min / Respiration rate, Max / Respiration rate, Mean ± SD / Respiration rate, Median / Respiration rate, Min / Systolic blood pressure, Max / Systolic blood pressure, Mean ± SD / Systolic blood pressure, Median / Systolic blood pressure, Min: SDAT patients, IV infusion
Procedure: Study drug IV infusion was to be stopped at any time if any of the following occurred: • There was more than 20 mm Hg decrease in systolic or diastolic blood pressure. • There was an isolated drop in Systolic BP<100 mm of Hg. • There was an isolated drop Diastolic BP<60 mm of Hg. • There was a decrease in heart rate of 20 beats per minute or a drop below 50 beats per minute. • Attainment of a RASS of −1 at the end of each 30 minutes infusion period.
Return to baseline parameters was defined as BP falling within 15 mm of Hg of baseline reading prior to drug administration or HR falling within 10 beats per minute of baseline reading prior to drug administration.

In the case of Cc1cccc([C@H](C)c2cnc[nH]2)c1C [dexmedetomidine hydrochloride], the “all the vital signs values” (SDAT) is reported as “within clinically acceptable limits”, the “Diastolic blood pressure Max” value (00:00 Hr) is reported as 90 mm of Hg and the “Diastolic blood pressure Mean ± SD” value (00:00 Hr) is reported as 80.9 ± 9.87 mm of Hg. The “Diastolic blood pressure Median” value (00:00 Hr) was 83.5 mm of Hg, the “Diastolic blood pressure Min” value (00:00 Hr) was 64 mm of Hg and the “Pulse rate, Max” value (00:00 Hr) was 91 beats/min. For the same compound, the “Pulse rate, Mean ± SD” value (00:00 Hr) was 79.0 ± 9.02 beats/min, the “Pulse rate, Median” value (00:00 Hr) was 78.0 beats/min and the “Pulse rate, Min” value (00:00 Hr) was 64 beats/min. The “Respiration rate, Max” value (00:00 Hr) was 26 breaths/min, the “Respiration rate, Mean ± SD” value (00:00 Hr) was 19.6 ± 2.50 breaths/min and the “Respiration rate, Median” value (00:00 Hr) was 19.5 breaths/min. For the same compound, the “Respiration rate, Min” value (00:00 Hr) was 17 breaths/min, the “Systolic blood pressure, Max” value (00:00 Hr) was 169 mm of Hg and the “Systolic blood pressure, Mean ± SD” value (00:00 Hr) was 143.2 ± 13.60 mm of Hg. For the same compound, the “Systolic blood pressure, Median” value (00:00 Hr) was 140.0 mm of Hg, the “Systolic blood pressure, Min” value (00:00 Hr) was 125 mm of Hg and the “Diastolic blood pressure Max” value (00:15 Hr) was 92 mm of Hg. For the same compound, the “Diastolic blood pressure Mean ± SD” value (00:15 Hr) was 82.1 ± 8.46 mm of Hg, the “Diastolic blood pressure Median” value (00:15 Hr) was 84.0 mm of Hg and the “Diastolic blood pressure Min” value (00:15 Hr) was 70 mm of Hg. For the same compound, the “Pulse rate, Max” value (00:15 Hr) was 89 beats/min, the “Pulse rate, Mean ± SD” value (00:15 Hr) was 78.2 ± 9.85 beats/min and the “Pulse rate, Median” value (00:15 Hr) was 80.0 beats/min. The “Pulse rate, Min” value (00:15 Hr) was 57 beats/min, the “Respiration rate, Max” value (00:15 Hr) was 26 breaths/min and the “Respiration rate, Mean ± SD” value (00:15 Hr) was 18.3 ± 3.20 breaths/min. For the same compound, the “Respiration rate, Median” value (00:15 Hr) was 17.0 breaths/min, the “Respiration rate, Min” value (00:15 Hr) was 15 breaths/min and the “Systolic blood pressure, Max” value (00:15 Hr) was 155 mm of Hg. The “Systolic blood pressure, Mean ± SD” value (00:15 Hr) was 138.0 ± 10.35 mm of Hg, the “Systolic blood pressure, Median” value (00:15 Hr) was 134.5 mm of Hg and the “Systolic blood pressure, Min” value (00:15 Hr) was 122 mm of Hg. For the same compound, the “Diastolic blood pressure Max” value (00:30 Hr) was 89 mm of Hg, the “Diastolic blood pressure Mean ± SD” value (00:30 Hr) was 80.3 ± 7.99 mm of Hg and the “Diastolic blood pressure Median” value (00:30 Hr) was 82.5 mm of Hg. The “Diastolic blood pressure Min” value (00:30 Hr) was 66 mm of Hg, the “Pulse rate, Max” value (00:30 Hr) was 94 beats/min and the “Pulse rate, Mean ± SD” value (00:30 Hr) was 80.5 ± 10.43 beats/min. The “Pulse rate, Median” value (00:30 Hr) was 76.5 beats/min, the “Pulse rate, Min” value (00:30 Hr) was 64 beats/min and the “Respiration rate, Max” value (00:30 Hr) was 24 breaths/min. The “Respiration rate, Mean ± SD” value (00:30 Hr) was 18.1 ± 2.73 breaths/min, the “Respiration rate, Median” value (00:30 Hr) was 18.0 breaths/min and the “Respiration rate, Min” value (00:30 Hr) was 13 breaths/min. For the same compound, the “Systolic blood pressure, Max” value (00:30 Hr) was 155 mm of Hg, the “Systolic blood pressure, Mean ± SD” value (00:30 Hr) was 135.9 ± 10.05 mm of Hg and the “Systolic blood pressure, Median” value (00:30 Hr) was 133.5 mm of Hg. The “Systolic blood pressure, Min” value (00:30 Hr) was 120 mm of Hg, the “Diastolic blood pressure Max” value (00:45 Hr) was 86 mm of Hg and the “Diastolic blood pressure Mean ± SD” value (00:45 Hr) was 76.4 ± 9.42 mm of Hg. For the same compound, the “Diastolic blood pressure Median” value (00:45 Hr) was 79.0 mm of Hg, the “Diastolic blood pressure Min” value (00:45 Hr) was 62 mm of Hg and the “Pulse rate, Max” value (00:45 Hr) was 90 beats/min. For the same compound, the “Pulse rate, Mean ± SD” value (00:45 Hr) was 76.0 ± 9.48 beats/min, the “Pulse rate, Median” value (00:45 Hr) was 77.0 beats/min and the “Pulse rate, Min” value (00:45 Hr) was 58 beats/min. The “Respiration rate, Max” value (00:45 Hr) was 20 breaths/min, the “Respiration rate, Mean ± SD” value (00:45 Hr) was 18.1 ± 1.91 breaths/min and the “Respiration rate, Median” value (00:45 Hr) was 18.0 breaths/min. For the same compound, the “Respiration rate, Min” value (00:45 Hr) was 15 breaths/min, the “Systolic blood pressure, Max” value (00:45 Hr) was 160 mm of Hg and the “Systolic blood pressure, Mean ± SD” value (00:45 Hr) was 138.3 ± 14.29 mm of Hg. The “Systolic blood pressure, Median” value (00:45 Hr) was 137.0 mm of Hg, the “Systolic blood pressure, Min” value (00:45 Hr) was 118 mm of Hg and the “Diastolic blood pressure Max” value (01:00 Hr) was 90 mm of Hg. The “Diastolic blood pressure Mean ± SD” value (01:00 Hr) was 74.5 ± 8.97 mm of Hg, the “Diastolic blood pressure Median” value (01:00 Hr) was 73.5 mm of Hg and the “Diastolic blood pressure Min” value (01:00 Hr) was 63 mm of Hg. The “Pulse rate, Max” value (01:00 Hr) was 89 beats/min, the “Pulse rate, Mean ± SD” value (01:00 Hr) was 75.3 ± 10.08 beats/min and the “Pulse rate, Median” value (01:00 Hr) was 74.0 beats/min. For the same compound, the “Pulse rate, Min” value (01:00 Hr) was 60 beats/min, the “Respiration rate, Max” value (01:00 Hr) was 20 breaths/min and the “Respiration rate, Mean ± SD” value (01:00 Hr) was 18.1 ± 1.73 breaths/min. The “Respiration rate, Median” value (01:00 Hr) was 18.0 breaths/min, the “Respiration rate, Min” value (01:00 Hr) was 15 breaths/min and the “Systolic blood pressure, Max” value (01:00 Hr) was 160 mm of Hg. For the same compound, the “Systolic blood pressure, Mean ± SD” value (01:00 Hr) was 134.4 ± 15.76 mm of Hg, the “Systolic blood pressure, Median” value (01:00 Hr) was 133.0 mm of Hg and the “Systolic blood pressure, Min” value (01:00 Hr) was 110 mm of Hg. For the same compound, the “Diastolic blood pressure Max” value (01:15 Hr) was 84 mm of Hg, the “Diastolic blood pressure Mean ± SD” value (01:15 Hr) was 74.6 ± 10.17 mm of Hg and the “Diastolic blood pressure Median” value (01:15 Hr) was 79.5 mm of Hg. The “Diastolic blood pressure Min” value (01:15 Hr) was 61 mm of Hg, the “Pulse rate, Max” value (01:15 Hr) was 94 beats/min and the “Pulse rate, Mean ± SD” value (01:15 Hr) was 73.4 ± 11.56 beats/min. The “Pulse rate, Median” value (01:15 Hr) was 71.5 beats/min, the “Pulse rate, Min” value (01:15 Hr) was 58 beats/min and the “Respiration rate, Max” value (01:15 Hr) was 20 breaths/min. For the same compound, the “Respiration rate, Mean ± SD” value (01:15 Hr) was 18.4 ± 2.20 breaths/min and the “Respiration rate, Median” value (01:15 Hr) was 19.5 breaths/min.
